Measurements taken from US20080311122A1, “Antagonists of Hmgb1 and/or Rage and Methods of Use Thereof” (Medimmune, LLC, priority 2005, published 2008).
“Also recorded” adds a separate entry of the source.

How the values were obtained:
pDCs = experiment: Stimulation of pDCs isolated from bone marrow, cytokine ELISA; assay type: cell-based, mouse; details: 24 hr
Description: Mice and Bone Marrow Cells: C57BL/6 mice were obtained from The Jackson Laboratories and maintained in specific pathogen-free conditions in conventional animal facilities at MedImmune, Inc. TLR9 deficient and MyD88 deficient mice and their litter mate controls were maintained in animal facility of University of Massachusetts Medical School. RAGE deficient mice generated were obtained from Heidelburg Germany and maintained at the University of Massachusetts Medical School. Fresh bone marrow cells were collected and pDCs were isolated from bone marrow cells using miltenyibiotec's plasmacytoid dendritic cell isolation kit. pDCs were re-suspended in Opti-MEM (Invitrogen) and stimulated […] cell/well for 24 hr and cytokine level in the supernatant was measured by ELISA.

CpG A DNA = experiment: Tryptophan emission for CpG-A binding to HMGB1; details: intrinsic tryptophan fluorescence; read-out: apparent Kd for CpG A DNA
Experimental: Tryptophan emission for CpG-A binding to HMGB1: Fluorescence titrations and spectra of HMGB-1 were carried out at 25° C. with a SPEX Fluoromax-3 spectrofluorimeter, monitoring the HMGB-1 intrinsic tryptophan emission at 347 nm (8 nm bandwidth) with 280 nm excitation (3 nm bandwidth) in a masked capped dual-pathlength (0.2×1.0 cm) quartz cell (Hellma Cells, Inc., Jamaica, N.Y.) upon stepwise addition of CpG-A (0.5 mM) to a 1.7 μM solution of HMGB-1 in 1:10 Dulbecco Phosphate Buffered Saline (PBS) solution (Invitrogen, Carlsbad, Calif.). Complex formation between HMGB-1 and the nucleic acid was monitored by the change in the initial fluorescence of the protein. HMGB-1 fractional saturation was inferred from the ratio of observed fluorescence change to maximal change (at saturation), Flim, for each of the nucleic acid additions. Binding affinity was calculated from graphs of relative fluorescence intensity versus [nucleic acid base]/[protein].The occluded binding site size (n) was derived from the intersection of the extrapolated initial slope with the limiting fluorescence plateau in the equilibrium binding isotherms. The measurements for assessment of Tryptophan emission are reviewed in detail in Lakowicz, 2000, Photochem. Photobiol. 72, 421-437.

mouse macrophages = experiment: TNF-a induction in mouse macrophages; assay type: cell-based
Experimental: TNF-a Induction: To examine mRNA levels macrophages were derived from mouse bone marrow using M-CSF. Macrophages were then stimulated by LPS, E. coli produced recombinant HMGB1 or HMGB1 purified from bovine thymus for indicated length of time and mRNA is measured by Taqman. To examine protein levels thioglycant activated mouse peritoneal macrophages were stimulated with 10 μg/mL of HMGB1 purified from bovine thymus or recombinant HMGB1 generated from E. coli for 24 hr. Cytokines in the supernatant were measured by ELISA.

[1] = tested on: native activated HMG1 stimulated IL-6 release from human PBMCs; experiment: Inhibition of cytokine release from PBMCs, native activated HMG1; assay type: cell-based
Experimental: Inhibition of Cytokine Release: Human peripheral blood mononuclear cells (PBMCs) were isolated from the peripheral blood of healthy volunteers by a density gradient centrifugation. Freshly drawn heparinized whole blood was mixed with two volume of PBS. The diluted blood was gently layered on the surface of Histopaque-1077 (Sigma-Aldrich) and centrifuged at 400×g, at RT for 30 minute. PBMCs were collected from the interface between the plasma and the density gradient solution. After washing in PBS 3×, the purified PBMCs were resuspended in RPMI-1640 medium (GIBCO BRL) containing 100 U/ml penicillin, 100 μg/ml streptomycin and […] β-mercaptoethanol. 1×10^5 of cells was added in each well of 96-well cell culture plates. […]
The culture media were analyzed for inflammatory cytokines using Beadlyte human multi-cytokine flex kit from Upstate by Luminex 100 (Luminex Corp.). Proinflammatory cytokines TNF-α, IL-6, IL-1β and IL-12 (p40) were measured for cells stimulated with recombinant HMG1. In addition, TNF-α, IL-6, IL-1β and IL-8 were measured for cells stimulated with native activated HMG1.
Cytokine release data is presented as mean of triplicates±standard deviations. […] It was calculated by PRISM program.

[2] = tested on: CpG2216+thymus HMG1 induced IFN-a release (TLR9 signaling); experiment: Inhibition of HMG1 mediated enhancement of TLR9 signaling, CpG2216 + thymus HMG1 in bone marrow cells; assay type: cell-based; details: mouse bone marrow cells
Experimental: HMGB1+TLR Ligand: Freshly isolated bone marrow cells were stimulated with TLR ligands (TLR3:PolyIC@5 μg/mL; TLR4:LPS@2.5 ng/mL; TLR5:flagellin@0.25 μg/mL; TLR7:polyU@4 μg/mL or R837@5 μg/mL; TLR9:CpG2216@1 μM) with or without presence of thymus HMGB1 (10 μg/mL) for 24 hr. Cytokines in the supernatant were measured by ELISA.
Inhibition of HMG1 Mediated Enhancement of TLR Signaling: Freshly isolated bone marrow cells were stimulated with TLR9 ligand CpG2216 (0.3 μM) and thymus HMGB1 (10 μg/mL) in the presence of different concentration of the anti-HMGB1 mAb E11 or control human IgG for 24 hr and IFN-a in the supernatant was measured by ELISA. CpG2216, HMGB1 and nonstimulatory DNA were used alone or in combination as controls for the assay.

[3] = tested on: LPS+HMG1 induced TNF-a release (TLR4 signaling); experiment: Inhibition of HMG1 mediated enhancement of TLR4 signaling, LPS+HMG1 TNF-a release; assay type: cell-based, mouse
AM14 B cells [4] = experiment: DNA immune complex and AM14 cell binding assay; assay type: cell-based, mouse
Experimental: DNA immune complex and AM14 cell binding assay DNA immune complexes were preformed by mixing spent culture supernatants with 15 μg/ml of PL2-3 (anti-nucleosome IgG2a). AM14 FcγRIIB−/− cells were incubated with a mixture of spent culture supernatants (CML sup.) and 15 μg/ml of PL2-3 (anti-nucleosome IgG2a) on ice. To analyze the effect of RAGE-Fc on the ability of the complexes to bind AM14 B cells, RAGE-Fc (or Fc control) was added to the immune complexes for an additional 2 h on ice. The chromatin immune complexes, or antibody alone, were added to 0.5×10^6 splenic purified AM14 FcγRIIB−/− B. HMGB1 in complexes was detected using an anti-HMGB1-Biotinylated antibody (MedImmune, Inc.) and PL2-3 was detected by an anti-IgG2a-FITC.

AM14 B cells [5] = experiment: AM14 proliferation assay; assay type: cell-based, mouse
Experimental: AM14 proliferation assay: Purified AM14 B cells were preincubated with RAGE-Fc or control human IgG1 for 30 min at 37° C., and stimulated with 0.1 μg/ml of PL2-3 for 24 h at 37° C. Cells were then pulsed with [^3H]thymidine for 6 h.

[6] = tested on: lupus plasma induced IFIT1 mRNA in human PBMCs; experiment: IFIT1 mRNA induction in PBMCs by lupus plasma; assay type: cell-based; details: 20% lupus plasma
Experimental: Human Cell Culture and Isolation: Fresh PBMCs from healthy donors were prepared by Ficoll-hypaque fractionation and cultured at a density of 2×10^5Cells/0.1 ml in 96-well flat-bottomed plates in culture medium. 20% of lupus plasma was incubated with PBMC for 24 hrs. Some wells included antibodies anti-HMGB1, RAGE Fc or human IgG together with lupus plasma. After 24 hrs, PBMCs were collected and lysed. Total RNA was purified using the 96-well Total RNA Purification Kit (Gentra, Minneapolis, Minn.). 11 μl of this RNA was reverse-transcribed to cDNA in a 20 μl reaction using SuperScript III RNase H-Reverse Transcriptase (Invitrogen, Carlsbad, Calif.). cDNA obtained from each sample was diluted 1:[…] was amplified in a 25 μl real-time PCR reaction using 0.4 μM of sense and antisense primers and the 2×iQ SYBR Green Supermix (Bio-Rad, Hercules, Calif.). GAPDH was used as a housekeeping gene control. Primer sequences for IFIG and GAPDH were: IFIT1 forward, 5′-[…]-3′ (SEQ ID NO: 111); IFIT1 reverse, 5′-AGTCAGCAGCCAGTCTCAG-3′ (SEQ ID NO: 112); GAPDH forward, 5′-CAACGGATTTGGTCGTATT-3′ (SEQ ID NO: 113); GAPDH reverse, 5′-[…]-3′ (SEQ ID NO: 114).

## 5′-GGGGGACGATCGTCGGGGGG-3′ [CpG DNA]
pDCs
  IFN-α production: 32 ± 5 pg/mL
  TNF-α production: 43 ± 5 pg/mL

## HMGB1: HMGB1 purified from bovine thymus
CpG A DNA
  Kd: 0.07 µM
pDCs
  IFN-α production: ineffective
Mouse macrophages; 2 hours, listed as native HMG1
  induction of TNF-a mRNA levels: ~30 fold
Mouse macrophages; 2 hours, listed as thymus HMG1
  induction of TNF-a mRNA levels: roughly 30 fold
Mouse macrophages; 8 hour
  induction of TNF-a mRNA levels: ~15 fold
Mouse macrophages; 24 hours, supernatant
  increase in TNF-a protein levels: no induction

## RAGE-Fc: RAGE-Fc fusion protein (soluble RAGE), RAGE antagonist
[1]
  block of IL-6 release induced by native activated HMG1: able to block IL-6 released induced by native activated HMG1
[2]
  inhibition of IFN-a release induced by CpG + thymus HMG1: inhibit IFN-a release
[2]; listed as RAGE/Fc
  inhibition of IFN-a release induced by CpG + thymus HMG1: significantly blocked CpG/HMGB1 complex induced IFN-α
  inhibition of IFN-a release induced by CpG alone: did not block CpG-A induced IFN-α production
[2]; listed as Rage/Fc
  inhibition of IFN-a release induced by CpG + thymus HMG1: to a less extent; also recorded: inhibited the release of INF-a induced by CpG2216+thymus HMG1
  inhibition of IFN-a release induced by CpG alone: Neither E11, G4 or Rage/Fc inhibited
[3]
  inhibition of TNF-a release induced by LPS+HMG1: inhibits the release of TNF-a induced by LPS+HMG1; also recorded: could be blocked; also recorded: inhibit the release of TNFa induced by LPS+HMG1
AM14 B cells [4]
  inhibition of binding of chromatin/DNA immune complexes to AM14 B cells: blocks binding of chromatin IC to AM14 B cells; also recorded: inhibited binding of HMGB1-containing DNA immune complexes to the surface of B cells
AM14 B cells [5]
  effect on TLR2, TLR4 ligand induced proliferation or BCR mediated B cell activation: had no effect
AM14 B cells [5]; thymidine incorporation
  inhibition of DNA immune complex (PL2-3) dependent proliferation of AM14 B cells: reduced proliferation; also recorded: markedly inhibited PL2-3-dependent proliferation of AM14 B cells
[6]
  inhibition of induction of IFIT1 mRNA by lupus plasma: approx 75%

## lipopolysaccharide [LPS, reference compound]
Mouse macrophages; 2 hours
  induction of TNF-a mRNA levels: ~66 fold
Mouse macrophages; 8 hour
  induction of TNF-a mRNA levels: ~7 fold
